In US20170258787A1, “PROPHYLACTIC AND/OR THERAPEUTIC AGENT FOR BEHAVIORAL AND PSYCHOLOGICAL SYMPTOMS ASSOCIATED WITH NEURODEGENERATIVE DISEASE OR IMPULSIVE SYMPTOMS ASSOCIATED WITH MENTAL DISEASE CONTAINING BREXPIPRAZOLE OR SALT THEREOF” (OTSUKA PHARMACEUTICAL CO., LTD., priority 2012, published 2017):

How the values were obtained:
Wistar rat [1] = settings: reported in Alcohol & Alcoholism 2001; 36:2-10; cited from earlier work
APPSL-Tg mouse = assay: Measurement of mouse circadian rhythm locomotor activity (spontaneous locomotor activity in dark period); assay type: in vivo; settings: for spontaneous locomotor activity, dark period III (3:00-7:00), Night 1 / spontaneous locomotor activity, dark period III (3:00-7:00), Night 2 / spontaneous locomotor activity, dark period III (3:00-7:00), Night 3: APPSL-Tg mice
Excerpt: 1) Measurement of Mouse Circadian Rhythm Locomotor Activity
(§1) Animal: APPSL-Tg mouse (male) having Swedish and London APP mutations, and non-Tg mouse (male) free of a genetic mutation as a control were generated (Neuroscience Letters 2010; 469:273-277), bred in a breeding room, and used after they became 6-month-old. During the breeding, isolated housing was applied.
(§2) Measurement method: SUPERMEX manufactured by Muromachi Kikai Co., Ltd. was used for the measurement of circadian rhythm locomotor activity. The mouse was placed in an individual cage, and the spontaneous locomotor activity of the mouse was measured for 3 days (total 62.5 hr) under free-feeding, drinking water conditions. In this apparatus, a passive infrared sensor detects infrared rays emitted from the mouse, and the number of transpositions is counted. The measured values are totaled every 30 min, and automatically totaled using a specialized software CompACT AMS. The test was performed in a soundproof chamber, so that the spontaneous locomotor activity of the mouse would not be influenced. The lighting time in the soundproof chamber was set to 7:00-19:00 as in the breeding room.
The amounts of spontaneous locomotor activity of non-Tg mice and APPSL-Tg mice during the dark period of 19:00-7:00 were measured in advance. The mice were grouped in such manner as makes the mean and variance of the groups equal, using the body weight and the dark period spontaneous locomotor activity as indices.
Brexpiprazole was dissolved in distilled water containing 5% gum arabic, 5% gum arabic distilled water was used for the vehicle group, and they were orally administered to each mouse.
For 3 days, brexpiprazole and the vehicle were administered during the period of 17:30-18:30. After the administration, the measurement of the amount of locomotor activity was rapidly started or continued.
The statistical test was a two-sided test, and the significance level of the test was set to 5%. As a statistical software, SAS (R9.1, SAS Institute Japan Ltd.) was used.
Dunnett's test was performed based on the repeated measures ANOVA using a mixed model for Night 1-Night 3 at every phase I, II or III of the dark period. Furthermore, Dunnett's test was performed for every dark period and Night.

non-Tg mouse = assay: Measurement of mouse circadian rhythm locomotor activity in control mice; assay type: in vivo
Excerpt: as §1, §2
Brexpiprazole was administered to APPSL-Tg mouse immediately before the dark period (17:30-18:30) at a dose of 0.01 and 0.03 mg/kg, and the measurement of the spontaneous locomotor activity was started. […]

Tg2576 mouse = assay: Resident-Intruder test (aggression, biting); assay type: in vivo; settings: 0.03 mg/kg oral 1 hr before test
Excerpt: Animal: Tg2576 mice (male) having a Swedish APP mutation (K670N, M671L) and non-Tg mice (male) free of the same genetic mutation as a control were purchased from Taconic, and bred and aged until 5- to 6-month-old of age. During the breeding, isolated housing was applied. Measurement method: For the experiment, Tg2576 or non-Tg mouse [Resident] and A/J mouse [Intruder] almost free of aggression were used. Resident formed a sufficient territory by isolated housing for 14 days. […] As the aggressive behavior, biting was noted, and the time necessary for the first biting and total number of biting for 10 min were measured. The measurement was performed within the dark period phase 1 (4 hr) when the amount of locomotor activity of the mouse is the highest. Tg2576 (48 mice) and non-Tg mice (10 mice) were subjected to a Resident-Intruder test in advance, and promotion of the to aggression of the Tg2576 mouse was confirmed. Five Tg2576 mice free of aggression were excluded and 43 mice were used for the test. The mice were grouped into 3 groups in such manner as makes the mean and variance of the groups equal, using the time necessary for the first attack and total number of biting for 10 min, which were obtained in the preliminary test, as indices (total 43 mice). […]

Wistar rat [2] = assay: Measurement of alcohol intake by limited access paradigm; assay type: in vivo
Experimental: Measurement method: An impulsive behavior of cravings for alcohol was evaluated as follows by reference to the method of Sinclair et al. (Alcohol 1992; 9:441-44 and Alcohol & Alcoholism 2001; 36:2-10). First, Wistar rat (male) was allowed to freely take 10% aqueous ethanol solution and tap water for several weeks under isolated housing. After stabilization of ethanol intake by each animal, a limited access paradigm allowing ethanol intake for only 1 hr per day was started, and the ethanol intake for 1 hr was measured every day. Ethanol intake was calculated from the results of the weight measurement of the water supply bottle filled with 10% aqueous ethanol solution immediately before the start of the limited access paradigm and immediately after completion thereof. An animal which was showing over 0.4 g/kg/hr in terms of 100% ethanol as an average ethanol intake in the limited access paradigm for 4 days immediately before drug evaluation was used. The limited access paradigm test was performed between 9:00 AM-12:00 PM. Brexpiprazole was suspended in distilled water containing 5% gum arabic. […] An average ethanol intake in the limited access paradigm of 4 days immediately before drug evaluation and an average ethanol intake in the limited access paradigm of 4 days after drug administration were analyzed by the 2-tailed paired t-test.

Wistar rat [3] = assay: Spontaneous locomotor activity under novel environments; assay type: in vivo; settings: 0.1 mg/kg, data not indicated
c-fos-GFP mouse = assay: Measurement of nerve activation pattern (GFP signal) of c-fos-GFP mouse; assay type: in vivo; settings: brain isolated 3 hr later
Experimental: Measurement method: c-fos is an indirect marker for neuronal activity, which is expressed on activation of nerve cell. Using a transgenic mouse introduced with a green fluorescent protein (GFP) gene at the downstream of the promoter of c-fos gene (c-fos-GFP mouse), the nerve activation pattern in the brain was measured. Brexpiprazole or vehicle was administered, and the brain was isolated 3 hr later. GFP signals from serial sections of the whole brain were stored in a computer using a two-photon microscope and, after three-dimensional reconstruction, the nerve activation patterns of brexpiprazole (OPC-34712) and vehicle groups were quantitatively analyzed using the brain map information. Brexpiprazole was suspended in distilled water containing 5% gum arabic, and orally administered to c-fos-GFP mouse. Five to seven mice were used. The dose of brexpiprazole was 0.3 and 1 mg/kg. The significance level of the test was set to 5%. In the comparison between groups in each brain region, Tukey's multiple comparison test was conducted.

[4] = system: patients with highly severe Alzheimer's disease; settings: 12 weeks, Alzheimer's disease patients in nursing home, cited from earlier work
schizophrenia patients = settings: Psychiatric Services 2001, 52:1510-14; cited from earlier work
[5] = system: mouse having a Disc1 L100P point mutation; settings: Neuron 54(3): 387-402, 2007; cited from earlier work
[6] = 0.01 mg/kg oral, n = 6, mean ± standard error
[7] = 0.03 mg/kg oral, n = 5, mean ± standard error

## C=C1CC[C@@]2(O)[C@H]3Cc4ccc(O)c5c4[C@@]2(CCN3CC2CC2)[C@H]1O5 [Nalmefene]
Wistar rat [1]
  effect in the limited access paradigm evaluation system: shows effect in this evaluation system

## O=c1ccc2ccc(OCCCCN3CCN(c4cccc5sccc45)CC3)cc2[nH]1 [brexpiprazole, 7-[4-(4-benzo[b]thiophen-4-yl-piperazin-1-yl)butoxy]-1H-quinolin-2-one]
APPSL-Tg mouse; 0.01 mg/kg oral, P<0.01
  spontaneous locomotor activity at Night 3, dark period phase III, vs vehicle (in words): significantly suppressed the spontaneous locomotor activity at Night 3
APPSL-Tg mouse; 0.01 mg/kg oral, P<0.05
  spontaneous locomotor activity in dark period phase III compared to the vehicle group (Night 1-Night 3): significantly suppress the spontaneous locomotor activity
APPSL-Tg mouse; 0.03 mg/kg oral, P=0.050
  spontaneous locomotor activity in dark period phase III compared to the vehicle group (Night 1-Night 3): significantly suppress the spontaneous locomotor activity
APPSL-Tg mouse; 0.03 mg/kg oral, P=0.068
  spontaneous locomotor activity at Night 3, dark period phase III, vs vehicle (in words): tended to suppress at Night 3
APPSL-Tg mouse; [6]
  spontaneous locomotor activity, dark period III (3:00-7:00), Night 1: 7256
  spontaneous locomotor activity, dark period III (3:00-7:00), Night 2: 6466
APPSL-Tg mouse; 0.01 mg/kg oral, n = 6, mean ± standard error, P < 0.01 vs vehicle
  spontaneous locomotor activity, dark period III (3:00-7:00), Night 3: 4928
APPSL-Tg mouse; [7]
  spontaneous locomotor activity, dark period III (3:00-7:00), Night 1: 6014
  spontaneous locomotor activity, dark period III (3:00-7:00), Night 2: 5443
APPSL-Tg mouse; 0.03 mg/kg oral, n = 5, mean ± standard error, P = 0.068 vs vehicle
  spontaneous locomotor activity, dark period III (3:00-7:00), Night 3: 6845
non-Tg mouse
  spontaneous locomotor activity in dark period: did not decrease the spontaneous locomotor activity
Tg2576 mouse; P<0.05
  time necessary for the first biting compared to the vehicle group: significantly elongated
Tg2576 mouse; P=0.0709
  number of biting for 10 min compared to the vehicle group: tended to show a decreased number of biting
Wistar rat [2]; 0.1 mg/kg oral for 4 days, five rats
  ethanol intake observed individually: all rats showed a decrease in the ethanol intake
Wistar rat [2]; 0.1 mg/kg oral once per day for 4 days, 1 hr before, vs 4 days before drug
  average ethanol intake in the limited access paradigm: statistically significant suppression of ethanol intake
Wistar rat [3]
  influence on spontaneous locomotor activity under novel environments: does not influence spontaneous locomotor activity
c-fos-GFP mouse; 0.3 mg/kg oral
  GFP signal in the medial prefrontal cortex (ACA, PL, IL) relative to vehicle: significantly increased GFP signal
c-fos-GFP mouse; 1 mg/kg oral
  GFP signal in the medial prefrontal cortex (ACA, PL, IL) relative to vehicle: significantly increased GFP signal

## COc1cc2c(cc1OC)C(=O)C(CC1CCN(Cc3ccccc3)CC1)C2 (stereo not drawn) [donepezil]
[4]; p value 0.95
  NPI (Neuropsychiatric Inventory) score vs placebo: no statistically significant difference
[4]; p value 0.98
  CMAI (Cohen-Mansfield Agitation Inventory) score vs placebo: no statistically significant difference

## O=C(CCCN1CCC(O)(c2ccc(Cl)cc2)CC1)c1ccc(F)cc1 [haloperidol]
Schizophrenia patients
  hostility (positive scale of PANSS): aggravated hostility
[5]
  schizophrenia-like behaviors: reduced the schizophrenia-like behaviors

## Cc1nc2n(c(=O)c1CCN1CCC(c3noc4cc(F)ccc34)CC1)CCCC2 [risperidone]
Schizophrenia patients
  hostility (positive scale of PANSS): aggravated hostility
